What was measured:
[1] = Bulk density, tapped density and flow properties (Hausner Ratio, Compressibility Index); format: physicochemical; conditions: for Hausner Ratio: tapped density / bulk density
Description: The composition of present invention were analyzed for bulk and tapped density and flow properties such as Hausner Ratio, Compressibility Index. Bulk Density and Tapped Density is determined using the standard method of Test 616 (Bulk Density and Tapped Density) of USP 32. The Hausner ratio may be calculated using formula ptap/pbulk where ptap represents tapped density of granulate mass and pbulk represents the loose bulk density of granulate mass. A Hausner ratio of <1.25 indicates a powder that is free flowing whereas >1.25 indicates poor flowability. Compressibility index is indirect measure of the flowability of the powder and it is determined according to US Pharmacopeia General Chapter <1174>. The smaller the compressibility index the better the flow properties. For example 5-15 indicates excellent, 12-16 good, 18-21 fair and >23 poor flow.

[2] = cited from earlier work
[3] = listed as Active Pharmaceutical Ingredient

Tapped Density [1]: 0.300 g/mL
bulk density ([1]; API prior to granulation versus composition): about 0.185 g/mL
bulk density ([1]; Table 4): 0.185 g/mL
Compressibility Index (%) ([1]; listed as API): about 38.33%
Compressibility Index (%) [1, 3]: 38.33% (Very Poor)
Hausner Ratio ([1]; listed as API): about 1.62
Hausner Ratio [1, 3]: 1.62 (Very Poor)
Structure (SMILES): O=C(O)c1ccc(-n2nc(-c3ccccc3O)nc2-c2ccccc2O)cc1 [Deferasirox, 4-[3,5-bis(2-hydroxyphenyl)-1H-1,2,4-triazol-1-yl]benzoic acid]
solubility in water [2]: poorly soluble in water
